Assay results as given in patent US8911723B2, “Hybrid hydrogel scaffold compositions and methods of use” (Escape Therapeutics, Inc., priority 2010, dated 2014).
“Also recorded” adds a separate entry of the source.

Assays:
[1] = Rheology, temperature sweep of hydrogels (AR-G2 rheometer); format: physicochemical; conditions: for lost modulus G″ / storage modulus G′: 1% w/v in PBS
Experimental: The viscoelastic properties of 3 hydrogels were investigated with a, AR-G2 rheometer (TA Instruments, New Castle, Del.). The parameters of temperature sweep were set as follows: range 4-40° C., change rate 5° C./min, strain 2%; frequency 1 Hz. Three parameters were recorded: 1) storage modulus G′ estimates the elastic component of mechanical strength, 2) lost modulus G″ estimates the viscous component of mechanical strength, and 3) phase difference Delta indicates the elastic or viscous property of a material. Zero degree of Delta implies a purely elastic material, while a purely viscous material has a Delta of 90 degrees. This same method can be used to analyze the viscoelastic properties of any of the scaffolds/hydrogels of the invention.
To determine the mechanical properties of PO, EFK8, and EFK8-PO hydrogels, we performed rheological analyses. The viscoelastic behaviors of EFK8 (1% w/v in PBS), PO (20% w/v in PBS), and EFK8-PO (20% w/v PO plus 1% w/v EFK8, both in PBS) hydrogels are illustrated in FIG. 1. At 25° C., G′ of EFK8 hydrogel was ˜10.5 Pa and G″ was ˜6.2 Pa. […] Phase difference Delta increased from 30 degrees to 70 degrees (FIG. 1A). […] EFK8 hydrogel was very weak and less viscous both at room temperature and 37° C. […] FIG. 1C illustrates the viscoelastic behavior of EFK8-PO.

[2] = tested on: hAMSCs; experiment: hAMSC morphology and distribution (aggregation) after encapsulation in hydrogels; format: cell-based, human; conditions: hAMSCs encapsulated in hydrogel
Experimental: Cells were encapsulated in the appropriate hydrogel by gently mixing hAMSCs with PO, EFK8, or EFK8-PO at a final concentration of 1×10^6 cells/ml. When seeding hAMSCs in PO or EFK8-PO, hydrogels were kept on ice to prevent premature gelation. Fifty μL of the aliquot of hydrogel/cell mixture was quickly transferred into a 96-well microplate. Encapsulated hAMSCs were then incubated at 37° C. for 5 min to induce gel formation. One hundred μL of DMEM medium was then added into each well. Fresh medium was changed 3 times within the first 30 min in order to neutralize the acidic pH of the hydrogels, and then changed every other day during culture. After various treatments described below and at the appropriate time points, a 1000 μL pipette tip was cut at its distal end to facilitate our ability to gently draw up 50 μL of encapsulated hAMSCs from the top of the well. Cells were then gently placed onto a slide to allow for examination under light field microscopy. This process was repeated 3 times per well, allowing for assessment of a total of 3 different depth layers (top, middle, and bottom) of the encapsulated cell mixture. This method of encapsulation can generally be used for encapsulating most cell-types in the scaffolds described herein. […]

[3] = Cell viability of hydrogel-encapsulated hAMSCs (trypan blue); format: cell-based; conditions: human, hAMSCs encapsulated in EFK8 hydrogel, through 14 days of culture, read-out: hAMSC viability
Experimental: hAMSCs were encapsulated in PO, EFK8, or EFK8-PO and cultured in a 37° C. humidified 5% CO2 incubator for 3 hrs, 1, 3, 6, 10, or 14 days. Fifty μL of cells was then mixed with an equal volume of 1% trypan blue and observed under light microscopy. Trypsin-EDTA (0.25%) was used to separate cells when cell aggregation occurred. Viability was calculated as the percentage of living cells over total cells.

[4] = tested on: hAMSCs; experiment: WST-1 Cell Proliferation assay of encapsulated hAMSCs; format: cell-based, human; conditions: days 1-4 of culture
[5] = tested on: hAMSCs; experiment: In vitro adipogenic differentiation of encapsulated hAMSCs (Oil Red O); format: cell-based, human
Excerpt: (§1) hAMSCs were encapsulated in PO, EFK8, and EFK8-PO as above. Adipogenic or osteogenic differentiation was induced by culturing cells in adipogenic or osteogenic differentiation medium (AD-medium or OS-medium, respectively, Cell Applications, San Diego, Calif.) for 7 days or 14 days, respectively, according to our previously published method, which is hereby incorporated by reference, Zhao L et al., “TGF-beta 1 Induces Osteogenic Differentiation of Murine Bone Marrow Stromal Cells,” Tissue Eng Part A 2009, In press. Fresh induction media was added to every other day.
Red oil staining was used to confirm hAMSC adipogenic differentiation. Cells were washed with PBS and fixed with 10% formalin for 20 min. Cells were then washed twice with PBS, once with 60% isopropyl alcohol, stained with Oil Red O solution (Sigma-Aldrich) for 15 min, washed with PBS once more, and then observed by light field microscopy, Hata K et al., “A CCAAT/enhancer binding protein beta isoform, liver-enriched inhibitory protein, regulates commitment of osteoblasts and adipocytes,” Mol Cell Biol, 2005, 25(5):1971-1979, which is hereby incorporated by reference.

[6] = tested on: hAMSCs; experiment: In vitro osteogenic differentiation of encapsulated hAMSCs (ALP, alizarin red S); format: cell-based, human; conditions: osteogenic differentiation medium, 14 days
Excerpt: as §1
Alkaline Phosphatase (ALP) staining was used to detect mineralization in hAMSCs during osteogenic differentiation. After culturing encapsulated hAMSCs for 14 days in the various hydrogels, the medium was aspirated and cells were stained with StemTag ALP (Cell Biolabs, San Diego, Calif.) according to the manufacturer's protocol. Briefly, after washing twice with PBS, cells were exposed to fixing solution for 2 min, then washed again with PBS and incubated with StemTAG ALP staining solution for 30 min in the dark. ALP staining solution was aspirated and cells were then washed with PBS and observed under light microscopy. […]

[7] = tested on: hAMSCs; experiment: Cell surface marker expression of encapsulated hAMSCs (RT-PCR); format: cell-based, human; conditions: after 2 weeks of culture, data not shown
Excerpt: hAMSCs were confirmed to meet the minimal criteria for defining multipotent MSCs according to previously described methods [Dominici et al., “Minimal criteria for defining multipotent mesenchymal stromal cells. The International Society for Cellular Therapy position statement,” Cytotherapy 2006; 8:315-7.]. First, hAMSCs were plastic-adherent when maintained in standard culture conditions using tissue culture flasks. […] Third, hAMSCs were able to differentiate to osteoblasts, adipocytes and chondroblasts under standard in vitro differentiating conditions.

[8] = tested on: hAMSCs in nude mice; experiment: In vivo adipogenic differentiation of hydrogel-encapsulated hAMSCs injected subcutaneously; conditions: subcutaneous dorsal neck, 30 days post-injection
Experimental: All mouse experiments were conducted in accordance with the Guide for the Care and Use of Laboratory Animals and were approved by each Institution's respective Administrative Panel on Laboratory Animal Care. hAMSCs were encapsulated in PO, EFK8, and EFK8-PO hydrogels at a final concentration of 1×10^6 cells/ml and mixed gently in the hydrogels. PO and EFK8-PO were kept on ice to prevent premature gelation during the seeding process. Two hundred μL of each encapsulation was injected subcutaneously using 1 ml syringes into the dorsal neck area of female nude mice (8 weeks of age). Two hundred μL of PBS was used as a control. The nude mice were then allowed to recover, and then returned to their cages. After 30 days, mice were sacrificed using CO2 euthanasia and dorsal neck skin harvested immediately. […]
Specimens were frozen sectioned using either vertical or horizontal slices 5-10 μm thick, then post-fixed in 100% cold acetone at −20° C., blocked for 1 hr with goat serum and then incubated with the appropriate mouse anti-human nuclei monoclonal primary antibody (Chemicon, Billerica, Mass.) at the desired dilution (1:50 to 1:250) overnight at 4° C. Signal was detected using the Vectastain ABC Elite Mouse/Rabbit/Goat IgG detection kit (Vector Laboratories, Burlingame, Calif.) following the manufacturer's protocol. […]

[9] = tested on: bleeding hand; experiment: Hemostatic agent test on a bleeding hand; conditions: in vivo
Experimental: In one embodiment, the scaffolds can be used as a hemostatic agent. […] When a bleeding hand was treated with EFK8-PO, bleeding stopped at one minute. When a bleeding hand was treated with PO alone, the hand was still bleeding at 10 minutes.

In the case of “Ac-KFEFKFEF-NH2 [EFK8, AcN-KFEFKFEF-CONH2]”, the “lost modulus G″” value ([1]; 25° C.) is reported as roughly 6.2 Pa, the “storage modulus G′” value ([1]; 25° C.) is reported as roughly 10.5 Pa and the “lost modulus G″” value ([1]; 37° C.) is reported as 5 Pa. The “storage modulus G′” value ([1]; 37° C.) was 2 Pa, the “phase difference Delta” value ([1]; end of the increase (37° C.)) was 70 degrees and the “phase difference Delta” value ([1]; start of the increase (25° C.)) was 30 degrees. The “Aggregation Day 3” value ([2]; 3 days of culture) was <3-5%, the “Aggregation Day 10” value ([2]; 10 days of culture) was roughly 10% and the viability [3] was greater than 80%. The “hAMSC proliferation (WST-1)” value [4] was “significantly increased hAMSC proliferation rates; also recorded: promote cell proliferation”, the “Adipogenic Oil-Red-O (% +) Day 4” value ([5]; adipogenic differentiation medium, 4 days) was 42±6% and the “Adipogenic Oil-Red-O (% +) Day 7” value ([5]; adipogenic differentiation medium, 7 days) was 68±8%. The “differentiation of encapsulated hAMSCs on induction medium (in words)” value ([5]; adipogenic or osteogenic induction medium) was “differentiated into adipocytes or osteoblasts”, the “Osteogenic AP (% +) Day 14” value [6] was 88±9% and the “Osteogenic Alizarin Red (% +) Day 14” value [6] was 54±7%. The “cell surface marker expression pattern” value [7] was “expressed CD73, CD90, and CD105 but were negative for CD14, CD19, CD34, CD45, and HLA class II”, the “new fat (adipose) tissue / hAMSC engraftment and adipogenic differentiation” value [8] was “did not observe new adipose tissue” and the “effectiveness as a hemostatic agent (in words)” value [9] was “also effective as a hemostatic agent”.
